# Laboratory results from patent US20080107614A1, “PEPTIDE-BASED CONDITIONERS” (priority 2006, published 2008).
# Ends that are not written are not given here. * marks the point of attachment. Biotin = O=C1N[C@H]2[C@H](CS[C@H]2CCCCC(=O)*)N1
# Assays:
# [1] = ELISA of phage-peptide clones on hair; type: binding, human; conditions: for Hair A450: phage ELISA, anti-M13 HRP conjugate, mean of at least three replicates
# Description: (§1) Enzyme-linked immunosorbent assay (ELISA) was used to evaluate the hair-binding specificity of selected phage-peptide clones. Phage-peptide clones identified in Examples 1 and 2 along with a randomly chosen control G-F9, KHGPDLLRSAPR (given as SEQ ID NO:63) were amplified. More than […] (plaque forming units) phage were added to pre-blocked hair surfaces.
# (§2) A unique hair or pig skin-bottom 96-well apparatus was created by applying one layer of PARAFILM® under the top 96-well block of a Minifold I Dot-Blot System (Schleicher & Schuell, Inc., Keene, N.H.), adding hair or a layer of hairless pig skin on top of the PARAFILM® cover, and then tightening the apparatus. For each clone to be tested, the hair-covered well was incubated for 1 h at room temperature with 200 μL of blocking buffer, consisting of 2% non-fat dry milk (Schleicher & Schuell, Inc.) in TBS. A second Minifold system with pig skin at the bottom of the wells was treated with blocking buffer simultaneously to serve as a control. The blocking buffer was removed by inverting the systems and blotting them dry with paper towels. The systems were rinsed 6 times with wash buffer consisting of TBST-0.05%. The wells were filled with 200 μL of TBST-0.5% containing 1 mg/mL BSA and then 10 μL (over […]) of purified phage stock was added to each well. The samples were incubated at 37° C. for 15 min with slow shaking. The non-binding phage was removed by washing the wells 10 to 20 times with TBST-0.5%. Then, 100 μL of horseradish peroxidase/anti-M13 antibody conjugate (Amersham USA, Piscataway, N.J.), diluted 1:500 in the blocking buffer, was added to each well and incubated for 1 h at room temperature. The conjugate solution was removed and the wells were washed 6 times with TBST-0.05%. TMB (3,3′,5,5′-tetramethylbenzidine) substrate (200 μL), obtained from Pierce Biotechnology (Rockford, Ill.) was added to each well and the color was allowed to develop for between 5 to 30 min, typically for 10 min, at room temperature. Then, stop solution (200 μL of 2 M H2SO4) was added to each well and the solution was transferred to a 96-well plate and the A450 was measured using a microplate spectrophotometer (Molecular Devices, Sunnyvale, Calif.). The resulting absorbance values, reported as the mean of at least three replicates, and the standard error of the mean (SEM) are given in Table 10.
# [2] = ELISA of phage-peptide clones on pig skin (specificity control); type: binding; conditions: for Pig Skin A450: phage ELISA, anti-M13 HRP conjugate, mean of at least three replicates
# Description: as §1, §2
# [3] = ELISA-based MB50 determination on pig skin; type: binding; conditions: for binding affinity for skin: in words, from MB50; for EC50: substrate Pig Skin, biotinylated peptide
# From the text: (§3) The term “MB50” refers to the concentration of the binding peptide that gives a signal that is 50% of the maximum signal obtained in an ELISA-based binding assay as described herein. The MB50 provides an indication of the strength of the binding interaction or affinity of the components of the complex. The lower the value of MB50, the stronger the interaction of the peptide with its corresponding substrate.
# (§4) Hair-binding and skin-binding peptides were synthesized by SynPep Inc. (Dublin, Calif.). The peptides were biotinylated by adding a biotinylated lysine residue at the C-terminus of the amino acid binding sequences for detection purposes and an amidated cysteine was added to the C-terminus of the sequence.
# (§5) For hair samples, the procedure used was as follows. The setup of the surface specific 96-well system used was the same as that described in Example 5. Briefly, the 96-wells with hair or pig skin surfaces were blocked with blocking buffer (SUPERBLOCK™ from Pierce Chemical Co., Rockford, Ill.) at room temperature for 1 h, followed by six washes with TBST-0.5%, 2 min each, at room temperature. Various concentrations of biotinylated, binding peptide were added to each well, incubated for 15 min at 37° C., and washed six times with TBST-0.5%, 2 min each, at room temperature. Then, streptavidin-horseradish peroxidase (HRP) conjugate (Pierce Chemical Co.) was added to each well (1.0 μg per well), and incubated for 1 h at room temperature. After the incubation, the wells were washed six times with TBST-0.5%, 2 min each at room temperature. Finally, the color development and the measurement were performed as described in Example 5.
# For the measurement of MB50 of the peptide-skin complexes, the following procedure was used. First, the pigskin was treated to block the endogenous biotin in the skin. This was done by adding streptavidin to the blocking buffer. After blocking the pigskin sample, the skin was treated with D-biotin to block the excess streptavidin binding sites. The remaining steps were identical to those used for the hair samples.
# (§6) The results were plotted as A450 versus the concentration of peptide using GraphPad Prism 4.0 (GraphPad Software, Inc., San Diego, Calif.).
# [4] = Titer-based assay of hair-binding phage clones; parameters: species or system human; conditions: output pfu retained by 10 mg of normal hair; input 10^14 pfu; acid-eluted phage
# Description: Phage clones displaying specific peptides were used for comparing the binding characteristics of different peptide sequences. A titer-based assay was used to quantify the phage binding. This assay measures the output pfu retained by 10 mg of hair surfaces, having a signal to noise ratio of 10^3 to 10^4. The input for all the phage clones was 10^14 pfu. It should be emphasized that this assay measures the peptide-expressing phage particle, rather than peptide binding.
# Normal hairs were cut into 0.5 cm lengths and 10 mg of the cut hair was placed in each well of a 96-well filter plate (Qiagen). Then, the wells were filled with blocking buffer containing 1 mg/mL BSA in TBST-0.5% and incubated for 1 h at 4° C. The hairs were washed 5 times with TBST-0.5%. The wells were then filled with 1 mL of TBST-0.5% containing 1 mg/mL BSA and then purified phage clones (10^14 pfu) were added to each well. The hair samples were incubated for 15 min at room temperature and then washed 10 times with TBST-0.5%. The hairs were transferred to a clean well and 1.0 mL of a non-specific elution buffer, consisting of 1 mg/mL BSA in 0.2 M Glycine-HCl at pH 2.2, was added to each well. The samples were incubated for 10 min and then 160 μL of neutralization buffer (1 M Tris-HCl, pH 9.2) was added to each well. The eluted phage from each well were transferred to a new tube for titering and sequencing analysis.
# To titer the bound phage, the eluted phage was diluted with SM buffer to prepare 10-fold serial dilutions of 10^1 to 10^8. A 10 μL aliquot of each dilution was incubated with 200 μL of mid-log phase E. coli ER2738 (New England BioLabs), and grown in LB medium for 20 min and then mixed with 3 mL of agarose top (LB medium with 5 mM MgCl2, and 0.7% agarose) at 45° C. This mixture was spread onto a LB medium/IPTG/Xgal (5-bromo-4-chloro-3-indolyl-β-D-galactopyranoside) plate (LB medium with 15 g/L agar, 0.05 g/L IPTG, and 0.04 g/L Xgal) and incubated overnight at 37° C.
# [5] = ELISA-based MB50 determination on hair; type: binding, human; conditions: for binding affinity for respective substrate (hair): in words, from MB50; for EC50: biotinylated peptide
# From the text: as §3, §4, §5, §6
# [6] = Peptide competition ELISA with D21 phage; type: binding, human
# Description: The purpose of this Example was to test the peptide binding site specificity and affinity of the hair-binding peptide D21 using a competition ELISA. The ELISA assay only detects phage particles that remain bound to the hair surface.
# The synthetic hair-binding peptide D21, given as SEQ ID NO:46 was synthesized by SynPep (Dublin, Calif.). As a control, an unrelated synthetic skin-binding peptide (SK-1), given as SEQ ID NO:61, was added to the system. The experimental conditions were similar to those used in the ELISA method described in Example 5. Briefly, 100 μL of Binding Buffer (1×TBS with 0.1% Tween® 20 and 1 mg/mL BSA) and 10^11 pfu of the pure D21 phage particles were added to each well of the 96-well filter plate, which contained a sample of normal hair. The synthetic peptide (100 μg) was added to each well (corresponding to concentration of 0.8 mM). The reactions were carried out at room temperature for 1 h with gentle shaking, followed by five washes with TBST-0.5%. The remaining steps were identical to the those used in the ELISA method described in Example 5. Each individual ELISA test was performed in triplicate; the values in Table 11 are the means of the triplicate determinations.
# [7] = in words, from the data in Table 10
Substance,Hair A450 [1],Pig Skin A450 [2],Phage Titer [4],also measured
AKTHKHPAPSYS [Clone C13],0.375,0.024,–,–
Binding Peptide D21: biotinylated hair-binding peptide D21 (binding sequence SEQ ID NO:46) (RTNAADHPAAVTK(Biotin)C-NH2; N-terminus assumed; SMILES CC(C)[C@H](NC(=O)[C@H](C)NC(=O)[C@H](C)NC(=O)[C@@H]1CCCN1C(=O)[C@H](Cc1c[nH]cn1)NC(=O)[C@H](CC(=O)O)NC(=O)[C@H](C)NC(=O)[C@H](C)NC(=O)[C@H](CC(N)=O)NC(=O)[C@@H](NC(=O)[C@@H](N)CCCNC(=N)N)[C@@H](C)O)C(=O)N[C@H](C(=O)N[C@@H](CCCCNC(=O)CCCC[C@@H]1SC[C@@H]2NC(=O)N[C@@H]21)C(=O)N[C@@H](CS)C(N)=O)[C@@H](C)O),–,–,–,binding affinity for skin [3]: relatively low
DLHTVYH (displayed on phage; Hair-binding peptide) [Clone A],–,–,7.50 × 10^4,–
EQISGSLVAAPW [Clone A5],0.431,0.256,–,–
GPHDTSSGGVRPNLHHTSKKEKRENRKVPFYSHSVTSRGNV [Clone D5],0.652,0.104,–,–
GPHDTSSGGVRPNLHHTSKKEKRENRKVPFYSHSVTSRGNV [Clone G],–,–,1.67 × 10^8,–
HIKPPTR (displayed on phage; Hair-binding peptide) [Clone B],–,–,1.21 × 10^5,–
HLTVPWRGGGSAVPFYSHSQITLPNH [Clone F],–,–,1.11 × 10^6,–
HPVWPAI (displayed on phage; Hair-binding peptide) [Clone D],–,–,8.20 × 10^4,–
I-B5 (TPPELLHGDPRS; Hair-binding peptide) [listing 1 of 2 here],–,–,–,binding affinity for skin [3]: relatively low; binding affinity for respective substrate (hair) [5]: high
I-B5 (TPPELLHGDPRS; Hair-binding peptide) [listing 2 of 2 here],–,–,–,EC50 [3]: > 100000 nM; EC50 ([5]; substrate Normal and Bleached Hair): 300 nM
"KHGPDLLRSAPR [Clone G-F9, reference compound]",0.074,−0.137,–,–
KHPTYRQ (displayed on phage; Hair-binding peptide) [Clone H],–,–,1.30 × 10^6,–
LGIPQNL (displayed on phage; Hair-binding peptide) [Clone D39],0.685,0.086,–,–
LPRIANTWSPS [Clone F35],–,–,–,binding affinity for respective substrate (hair) [5]: high; EC50 ([5]; substrate Bleached Hair): 3000 nM
MHAHSIA (displayed on phage; Hair-binding peptide) [Clone A36],0.585,0.173,–,–
MPKYYLQ (displayed on phage; Hair-binding peptide) [Clone J],–,–,1.24 × 10^6,–
MPLYYLQ (displayed on phage; Hair-binding peptide) [Clone E],–,–,1.70 × 10^5,–
NSPGYQADSVAIG [Clone D30],0.414,0.287,–,–
RTNAADHPAAVT [Clone D21],–,–,–,"A450 ([6]; 10^11 pfu D21 phage on normal hair, synthetic peptide 100 μg per well (0.8 mM) where added, mean of triplicate): 1.878"
RTNAADHPAAVT [Peptide D21],1.051,0.04,–,"EC50 [3]: 40000 nM; binding affinity for respective substrate (hair) [5]: high; EC50 ([5]; substrate Normal Hair): 2000 nM; competition with the phage clone D21 for the same binding sites on the hair surface ([6]; in words): does compete; binding affinity for hair [1, 7]: very strong; selectivity for hair compared to pig skin [1, 7]: highest; affinity for pig skin [2, 7]: very low"
SLNWVTIPGPKI [Clone C10],0.542,0.032,–,–
TAATTSP (displayed on phage; Hair-binding peptide) [Clone B1],0.42,0.127,–,–
TDMQAPTKSYSN [Clone C5],0.548,0.047,–,–
TPALDGLRQPLR [Clone C18],0.34,0.132,–,–
TPFHSPENAPGS [SK-1],–,–,–,binding affinity for skin [3]: high; EC50 [3]: 700 nM
